Measurements reported in US11446260B2, “Pharmaceutical composition of S-ketamine hydrochloride” (Janssen Pharmaceutica NV, priority 2013, dated 2022).

Legend:
Assay type in all cases: cell-based
M. luteus = test: Full AET Challenge Test; details: Micrococcus Luteus; summary of Examples 1 and 2
E. coli = test: Full AET Challenge Test; details: Escherichia coli; summary of Examples 1 and 2
A. brasiliensis = test: Full AET Challenge Test; details: Aspergillus brasiliensis; summary of Examples 1 and 2
C. albicans = test: Full AET Challenge Test; details: Candida albicans; summary of Examples 1 and 2
S. aureus = test: Full AET Challenge Test; details: Staphylococcus aureus; summary of Examples 1 and 2
P. aeruginosa = test: Full AET Challenge Test; details: Pseudomonas aeruginosa; summary of Examples 1 and 2
S. haemolyticus = test: Challenge test (Example 1); details: Staphylococcus haemolyticus; summary of Examples 1 and 2

For `CN[C@]1(c2ccccc2Cl)CCCCC1=O.Cl` [S-ketamine hydrochloride, (S)-2-(2-chlorophenyl)-2-(methylamino)cyclohexanone hydrochloride], which “antimicrobial properties (summary in words)” value (“antimicrobial properties” for short) (M. luteus) is on record?
The value was “strong antimicrobial properties”.

And the “antimicrobial properties” value (E. coli)?
The value was “strong antimicrobial properties”.

What about the “antimicrobial properties” value (A. brasiliensis) of the same compound?
The value was “some inhibitory activity”.

And the “antimicrobial properties” value (C. albicans)?
The value was “strong antimicrobial properties”.

What about the “antimicrobial properties” value (S. aureus) of the same compound?
Its value is “strong antimicrobial properties”.

What about the “antimicrobial properties” value (P. aeruginosa) of the same compound?
Its value is “strong antimicrobial properties”.

What about the “antimicrobial properties” value (S. haemolyticus) of the same compound?
The value was “strong antimicrobial properties”.
